Test results reported in PubChem BioAssay (NCI).
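Growth conditions: 96-well plates. Treatment: test compound, 48 hours, 5 concentrations. Analysis: linear interpolation between bracketing concentrations; unreached endpoints set to highest concentration. GI50 = concentration required for 50% inhibition of growth. TGI marks complete inhibition of growth.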

Columns and labels:
Assay in all cases: DTP human tumour cell line panel, 48 h
786-0 renal = system: 786-0 renal
A498 renal = system: A498 renal
A549 NSCLC = system: A549 NSCLC
ACHN renal = system: ACHN renal
BT-549 breast = system: BT-549 breast
CAKI-1 renal = system: CAKI-1 renal
CCRF-CEM leukemia = system: CCRF-CEM leukemia
COLO 205 colon = system: COLO 205 colon
DU-145 prostate = system: DU-145 prostate
EKVX NSCLC = system: EKVX NSCLC
HCT-116 colon = system: HCT-116 colon
HCT-15 colon = system: HCT-15 colon
HL-60(TB) leukemia = system: HL-60(TB) leukemia
HOP-62 NSCLC = system: HOP-62 NSCLC
HOP-92 NSCLC = system: HOP-92 NSCLC
HS 578T breast = system: HS 578T breast
HT29 colon = system: HT29 colon
IGROV1 ovarian = system: IGROV1 ovarian
K-562 leukemia = system: K-562 leukemia
KM12 colon = system: KM12 colon
LOX IMVI melanoma = system: LOX IMVI melanoma
M14 melanoma = system: M14 melanoma
MALME-3M melanoma = system: MALME-3M melanoma
MCF7 breast = system: MCF7 breast
MDA-MB-231 breast = system: MDA-MB-231 breast
MDA-MB-435 = system: MDA-MB-435
MOLT-4 leukemia = system: MOLT-4 leukemia
NCI-H226 lung = system: NCI-H226 lung
NCI-H23 lung = system: NCI-H23 lung
NCI-H460 lung = system: NCI-H460 lung
NCI-H522 lung = system: NCI-H522 lung
NCI/ADR-RES ovarian = system: NCI/ADR-RES ovarian
OVCAR-3 ovarian = system: OVCAR-3 ovarian
OVCAR-4 ovarian = system: OVCAR-4 ovarian
OVCAR-5 ovarian = system: OVCAR-5 ovarian
OVCAR-8 ovarian = system: OVCAR-8 ovarian
PC-3 prostate = system: PC-3 prostate
RPMI-8226 leukemia = system: RPMI-8226 leukemia
RXF 393 renal = system: RXF 393 renal
SF-268 CNS = system: SF-268 CNS
SF-295 CNS = system: SF-295 CNS
SF-539 CNS = system: SF-539 CNS
SK-MEL-2 melanoma = system: SK-MEL-2 melanoma
SK-MEL-28 melanoma = system: SK-MEL-28 melanoma
SK-OV-3 ovarian = system: SK-OV-3 ovarian
SN12C renal = system: SN12C renal
SNB-19 CNS = system: SNB-19 CNS
SNB-75 CNS = system: SNB-75 CNS
SW-620 colon = system: SW-620 colon
T-47D breast = system: T-47D breast
TK-10 renal = system: TK-10 renal
U251 CNS = system: U251 CNS
UACC-257 melanoma = system: UACC-257 melanoma
UACC-62 melanoma = system: UACC-62 melanoma
UO-31 renal = system: UO-31 renal

With Cc1ccc(C)c2c1C(=O)N(c1ccc(F)cc1F)C2=O the GI50 (786-0 renal) was greater than 100 µM, the TGI (786-0 renal) was greater than 100 µM and the GI50 (A498 renal) was greater than 100 µM. The TGI (A498 renal) was greater than 100 µM, the GI50 (A549 NSCLC) was greater than 100 µM and the TGI (A549 NSCLC) was greater than 100 µM. For the same molecule, the GI50 (ACHN renal) was greater than 100 µM, the TGI (ACHN renal) was greater than 100 µM and the GI50 (BT-549 breast) was greater than 100 µM. It also gave a TGI (BT-549 breast) greater than 100 µM, a GI50 (CAKI-1 renal) greater than 100 µM and a TGI (CAKI-1 renal) greater than 100 µM. For the same molecule, the GI50 (CCRF-CEM leukemia) was greater than 100 µM, the TGI (CCRF-CEM leukemia) was greater than 100 µM and the GI50 (COLO 205 colon) was greater than 100 µM. For the same molecule, the TGI (COLO 205 colon) was greater than 100 µM, the GI50 (DU-145 prostate) was greater than 100 µM and the TGI (DU-145 prostate) was greater than 100 µM. For the same molecule, the GI50 (EKVX NSCLC) was greater than 100 µM, the TGI (EKVX NSCLC) was greater than 100 µM and the GI50 (HCT-116 colon) was greater than 100 µM. For the same molecule, the TGI (HCT-116 colon) was greater than 100 µM, the GI50 (HCT-15 colon) was greater than 100 µM and the TGI (HCT-15 colon) was greater than 100 µM. The GI50 (HL-60(TB) leukemia) was greater than 100 µM, the TGI (HL-60(TB) leukemia) was greater than 100 µM and the GI50 (HOP-62 NSCLC) was greater than 100 µM. For the same molecule, the TGI (HOP-62 NSCLC) was greater than 100 µM, the GI50 (HOP-92 NSCLC) was 1.11 µM and the TGI (HOP-92 NSCLC) was greater than 100 µM. For the same molecule, the GI50 (HS 578T breast) was greater than 100 µM, the TGI (HS 578T breast) was greater than 100 µM and the GI50 (HT29 colon) was greater than 100 µM. The TGI (HT29 colon) was greater than 100 µM, the GI50 (IGROV1 ovarian) was greater than 100 µM and the TGI (IGROV1 ovarian) was greater than 100 µM. For the same molecule, the GI50 (K-562 leukemia) was greater than 100 µM, the TGI (K-562 leukemia) was greater than 100 µM and the GI50 (KM12 colon) was greater than 100 µM. It also gave a TGI (KM12 colon) greater than 100 µM, a GI50 (LOX IMVI melanoma) greater than 100 µM and a TGI (LOX IMVI melanoma) greater than 100 µM. The GI50 (M14 melanoma) was greater than 100 µM, the TGI (M14 melanoma) was greater than 100 µM and the GI50 (MALME-3M melanoma) was greater than 100 µM. The TGI (MALME-3M melanoma) was greater than 100 µM, the GI50 (MCF7 breast) was greater than 100 µM and the TGI (MCF7 breast) was greater than 100 µM. For the same molecule, the GI50 (MDA-MB-231 breast) was 22.9 µM, the TGI (MDA-MB-231 breast) was greater than 100 µM and the GI50 (MDA-MB-435) was greater than 100 µM. It also gave a TGI (MDA-MB-435) greater than 100 µM, a GI50 (MOLT-4 leukemia) greater than 100 µM and a TGI (MOLT-4 leukemia) greater than 100 µM. For the same molecule, the GI50 (NCI-H226 lung) was greater than 100 µM, the TGI (NCI-H226 lung) was greater than 100 µM and the GI50 (NCI-H23 lung) was greater than 100 µM. It also gave a TGI (NCI-H23 lung) greater than 100 µM, a GI50 (NCI-H460 lung) greater than 100 µM and a TGI (NCI-H460 lung) greater than 100 µM. It also gave a GI50 (NCI-H522 lung) greater than 100 µM, a TGI (NCI-H522 lung) greater than 100 µM and a GI50 (NCI/ADR-RES ovarian) greater than 100 µM. The TGI (NCI/ADR-RES ovarian) was greater than 100 µM, the GI50 (OVCAR-3 ovarian) was greater than 100 µM and the TGI (OVCAR-3 ovarian) was greater than 100 µM. The GI50 (OVCAR-4 ovarian) was greater than 100 µM, the TGI (OVCAR-4 ovarian) was greater than 100 µM and the GI50 (OVCAR-5 ovarian) was greater than 100 µM. For the same molecule, the TGI (OVCAR-5 ovarian) was greater than 100 µM, the GI50 (OVCAR-8 ovarian) was greater than 100 µM and the TGI (OVCAR-8 ovarian) was greater than 100 µM. For the same molecule, the GI50 (PC-3 prostate) was greater than 100 µM, the TGI (PC-3 prostate) was greater than 100 µM and the GI50 (RPMI-8226 leukemia) was 98.8 µM. For the same molecule, the TGI (RPMI-8226 leukemia) was greater than 100 µM, the GI50 (RXF 393 renal) was greater than 100 µM and the TGI (RXF 393 renal) was greater than 100 µM. It also gave a GI50 (SF-268 CNS) greater than 100 µM, a TGI (SF-268 CNS) greater than 100 µM and a GI50 (SF-295 CNS) greater than 100 µM. It also gave a TGI (SF-295 CNS) greater than 100 µM, a GI50 (SF-539 CNS) greater than 100 µM and a TGI (SF-539 CNS) greater than 100 µM. The GI50 (SK-MEL-2 melanoma) was greater than 100 µM, the TGI (SK-MEL-2 melanoma) was greater than 100 µM and the GI50 (SK-MEL-28 melanoma) was greater than 100 µM. The TGI (SK-MEL-28 melanoma) was greater than 100 µM, the GI50 (SK-OV-3 ovarian) was greater than 100 µM and the TGI (SK-OV-3 ovarian) was greater than 100 µM. The GI50 (SN12C renal) was greater than 100 µM, the TGI (SN12C renal) was greater than 100 µM and the GI50 (SNB-19 CNS) was greater than 100 µM. It also gave a TGI (SNB-19 CNS) greater than 100 µM, a GI50 (SNB-75 CNS) greater than 100 µM and a TGI (SNB-75 CNS) greater than 100 µM. For the same molecule, the GI50 (SW-620 colon) was greater than 100 µM, the TGI (SW-620 colon) was greater than 100 µM and the GI50 (T-47D breast) was 74.5 µM. The TGI (T-47D breast) was greater than 100 µM, the GI50 (TK-10 renal) was greater than 100 µM and the TGI (TK-10 renal) was greater than 100 µM. The GI50 (U251 CNS) was 89.3 µM, the TGI (U251 CNS) was greater than 100 µM and the GI50 (UACC-257 melanoma) was greater than 100 µM. For the same molecule, the TGI (UACC-257 melanoma) was greater than 100 µM, the GI50 (UACC-62 melanoma) was greater than 100 µM and the TGI (UACC-62 melanoma) was greater than 100 µM. For the same molecule, the GI50 (UO-31 renal) was greater than 100 µM and the TGI (UO-31 renal) was greater than 100 µM.
